Assay results reported in patent publication US8222236B2, “2-methylene-(20E)-20(22)-dehydro-19-nor-vitamin D analogs” (Wisconsin Alumni Research Foundation, priority 2008, dated 2012).
Entries after “also recorded” stand apart in the source; their conditions may differ.

Assays:
[1] = system: HL-60 cells; assay: HL-60 cell differentiation (nitro blue tetrazolium reduction); type: cell-based, human; settings: FIG. 2; for EC50: HL-60 cells, 4 days
Description: The study drugs were dissolved in ethanol and the concentrations determined using UV spectrophotometry. Serial dilutions were prepared so that a range of drug concentrations could be tested without changing the final concentration of ethanol (≦0.2%) present in the cell cultures.
Human promyelocytic leukemia (HL60) cells were grown in RPMI-1640 medium containing 10% fetal bovine serum. The cells were incubated at 37° C. in the presence of 5% CO2.
HL60 cells were plated at 1.2×10^5 cells/ml. Eighteen hours after plating, cells in duplicate were treated with drug. Four days later, the cells were harvested and a nitro blue tetrazolium reduction assay was performed (Collins et al., 1979; J. Exp. Med. 149:969-974). The percentage of differentiated cells was determined by counting a total of 200 cells and recording the number that contained intracellular black-blue formazan deposits. Verification of differentiation to monocytic cells was determined by measuring phagocytic activity (data not shown).

[2] = system: bone calcium mobilization; assay: Bone calcium mobilization (serum calcium) in vitamin D-deficient rats; type: in vivo, rat; settings: 0.02% Ca diet, FIG. 4
Description: (§1) Male, weanling Sprague-Dawley rats were placed on Diet 11 (0.47% Ca) diet +AEK oil for one week followed by Diet 11 (0.02% Ca) +AEK oil for 3 weeks. The rats were then switched to a diet containing 0.47% Ca for one week followed by two weeks on a diet containing 0.02% Ca. Dose administration began during the last week on 0.02% calcium diet. Four consecutive ip doses were given approximately 24 hours apart. Twenty-four hours after the last dose, blood was collected from the severed neck and the concentration of serum calcium determined as a measure of bone calcium mobilization. The first 10 cm of the intestine was also collected for intestinal calcium transport analysis using the everted gut sac method.

[3] = system: intestinal calcium transport; assay: Intestinal calcium transport, everted gut sac method, vitamin D-deficient rats; type: in vivo, rat; settings: FIG. 5; for intestinal calcium transport at 260 pmol/day, in words: ip, 4 consecutive days
Description: as §1

[4] = biological target: T1, full-length recombinant rat vitamin D receptor (Rattus norvegicus, UniProt P13053); assay: Vitamin D receptor competitive binding with [3H]-1,25(OH)2D3; settings: FIG. 1
T1 construct: Full-length recombinant rat receptor was expressed in E. coli BL21 (DE3) Codon Plus RIL cells; histidine tag (C); made in house; host or cells: E. coli BL21 (DE3) Codon Plus RIL
T1 sequence (P13053 1-423): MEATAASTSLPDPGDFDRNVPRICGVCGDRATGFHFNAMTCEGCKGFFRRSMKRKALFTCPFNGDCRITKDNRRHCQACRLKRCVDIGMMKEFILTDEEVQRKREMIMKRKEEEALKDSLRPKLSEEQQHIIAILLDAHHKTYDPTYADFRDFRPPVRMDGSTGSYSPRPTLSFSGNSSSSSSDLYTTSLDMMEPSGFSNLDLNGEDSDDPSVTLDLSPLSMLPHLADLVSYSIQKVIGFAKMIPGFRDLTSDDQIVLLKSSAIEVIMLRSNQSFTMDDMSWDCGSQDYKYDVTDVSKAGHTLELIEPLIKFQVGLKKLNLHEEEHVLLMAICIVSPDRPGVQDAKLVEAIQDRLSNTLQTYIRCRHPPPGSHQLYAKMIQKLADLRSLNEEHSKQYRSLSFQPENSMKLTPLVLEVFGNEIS
Description: Full-length recombinant rat receptor was expressed in E. coli BL21 (DE3) Codon Plus RIL cells and purified to homogeneity using two different column chromatography systems. The first system was a nickel affinity resin that utilizes the C-terminal histidine tag on this protein. The protein that was eluted from this resin was further purified using ion exchange chromatography (S-Sepharose Fast Flow). Aliquots of the purified protein were quick frozen in liquid nitrogen and stored at −80° C. until use. For use in binding assays, the protein was diluted in TEDK50 (50 mM Tris, 1.5 mM EDTA, pH7.4, 5 mM DTT, 150 mM KCl) with 0.1% Chaps detergent. The receptor protein and ligand concentration were optimized such that no more than 20% of the added radiolabeled ligand was bound to the receptor.
Radiolabeled and unlabeled ligands were added to 100 mcl of the diluted protein at a final ethanol concentration of ≦10%, mixed and incubated overnight on ice to reach binding equilibrium. The following day, 100 mcl of hydroxylapatite slurry (50%) was added to each tube and mixed at 10-minute intervals for 30 minutes. The hydroxylapaptite was collected by centrifugation and then washed three times with Tris-EDTA buffer (50 mM Tris, 1.5 mM EDTA, pH 7.4) containing 0.5% Titron X-100. […] Total binding was determined from the tubes containing only radiolabeled ligand.

[5] = system: 24-hydroxylase (24Ohase) gene promoter; assay: In vitro transcription assay, 24-hydroxylase gene promoter luciferase reporter in ROS 17/2.8 (bone) cells; type: cell-based; settings: ROS 17/2.8 cells, 24-hydroxylase promoter-luciferase, 16 hours; FIG. 3; read-out: EC50, transcriptional activity in bone cells
Description: Transcription activity was measured in ROS 17/2.8 (bone) cells that were stably transfected with a 24-hydroxylase (24Ohase) gene promoter upstream of a luciferase reporter gene (Arbour et al., 1998). Cells were given a range of doses. Sixteen hours after dosing the cells were harvested and luciferase activities were measured using a luminometer.
RLU=relative luciferase units.

VDR binding affinity compared to 1,25(OH)2D3 [4] | Ki ([4]; full-length recombinant rat VDR, read-out: Ki, competition with [3H]-1,25(OH)2D3 for binding to the vitamin D receptor) [nM] | EC50 ([1]; Homo sapiens, 96 h) [nM] | EC50 [5] [nM] | Structure (SMILES) | EC50 [1] [nM] | bone calcium mobilization activity (serum calcium), in words [2] | dose giving the same mobilization of bone calcium ([2]; ip, 4 consecutive days) [pmol/day] | intestinal calcium transport at 260 pmol/day, in words [3] | potency on HL-60 cell differentiation relative to 1,25(OH)2D3 [1] [times] | dose at which any substantial effect on bone calcium mobilization was seen ([2]; ip, 4 consecutive days) [pmol/day] | intestinal calcium transport activity, in words ([3]; vitamin D-deficient rats)
 |  |  |  | C=C1/C(=C\C=C2/CCC[C@]3(C)[C@@H]([C@H](C)CCCC(C)(C)O)CC[C@@H]23)C[C@@H](O)C[C@@H]1O [1,25(OH)2D3, 1α,25-dihydroxyvitamin D3, reference compound] | 2 | increased serum calcium levels at all dosages | 87 | significant increase |  |  | 
bound with the same affinity | 0.1 | 0.8 | 0.02 | C=C1[C@H](O)CC(=C/C=C2\CCC[C@]3(C)[C@@H](/C(C)=C/CCC(C)(C)O)CC[C@@H]23)C[C@H]1O [Vit III 20-22E, 2-methylene-(20E)-20(22)-dehydro-19-nor-1α,25-dihydroxyvitamin D3] |  | less bone calcium mobilization activity; also recorded: relatively low, or little, activity in mobilizing calcium from bone | 780 | promotes intestinal calcium transport | 3 to 4 | 7020 | about the same activity; also recorded: about the same as or equal to 1,25(OH)2D3
